According to article PMC10856454, “Discovery of Novel Antitumor Small-Molecule Agent with Dual Action of CDK2/p-RB and MDM2/p53” (Molecules, 2024):

Legend:
[1] = target: T1, CDK1 (Homo sapiens, UniProt P06493); assay: Kinase antagonist activity assay (TR-FRET), CDK1; assay type: biochemical
T1 construct: purchased Thermo Fisher Scientific
Protocol: (§1) The compounds were solubilized with DMSO (Solarbio Life Sciences, Beijing, China), and 11 concentrations were serially diluted at 3-fold; 100 nL of compound was added to 384-well plates, 5 μL of 2 × enzyme mixture (Thermo Fisher Scientific, Waltham, MA, USA) was added, and 5 μL of buffer was added instead of the complete inhibition control wells. Then, 1000 rpm centrifugation was performed for 30 s followed by a 15 min incubation at 23 °C. Next, 5 μL of 2 × MLight-MBP peptide (PerkinElmer, Waltham, MA, USA) was added to each well, with 1000 rpm centrifugation for 30 s and incubation at 23 °C for 90 min. At the end of the incubation, the reaction was terminated with buffer containing 15 mM EDTA and 2 nM Eu-anti-P-MBP antibody (PerkinElmer, Waltham, MA, USA), centrifuged at 1000 rpm for 1 min, and incubated at 23 °C for 60 min; the plates were read on a Perkin Elmer Envision ([…]).

[2] = target: T2, CDK4 (Homo sapiens, UniProt P11802); assay: Kinase antagonist activity assay (TR-FRET), CDK4; assay type: biochemical
T2 construct: purchased Thermo Fisher Scientific
T2 sequence (P11802 whole entry): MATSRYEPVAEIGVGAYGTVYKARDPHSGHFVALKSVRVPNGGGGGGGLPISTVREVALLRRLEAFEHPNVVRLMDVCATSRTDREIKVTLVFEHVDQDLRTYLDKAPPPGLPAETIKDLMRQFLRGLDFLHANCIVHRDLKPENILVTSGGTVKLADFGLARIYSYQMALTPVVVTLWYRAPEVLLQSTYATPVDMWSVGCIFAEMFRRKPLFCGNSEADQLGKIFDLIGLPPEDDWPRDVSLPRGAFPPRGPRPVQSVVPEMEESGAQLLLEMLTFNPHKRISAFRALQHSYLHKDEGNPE
T2 sequence (P24385 whole entry partner): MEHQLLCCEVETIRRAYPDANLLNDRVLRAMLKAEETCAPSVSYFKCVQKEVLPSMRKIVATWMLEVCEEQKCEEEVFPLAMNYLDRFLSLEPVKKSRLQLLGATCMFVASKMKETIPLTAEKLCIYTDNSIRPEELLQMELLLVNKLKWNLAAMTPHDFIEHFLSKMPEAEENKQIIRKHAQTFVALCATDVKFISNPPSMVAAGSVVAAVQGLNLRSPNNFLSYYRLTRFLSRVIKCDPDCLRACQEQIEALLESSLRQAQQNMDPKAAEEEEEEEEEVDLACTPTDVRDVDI
Protocol: as §1

[3] = test system: HCT116 cells; assay: Cell proliferation assay (Celltiter-Glo), HCT116; assay type: cell-based; details: Homo sapiens, HCT-116, 72 h; HCT116 (overexpression of CCNE1), three days
Protocol: Celltiter-Glo Luminescent Cell Viability Assay (Promega, Madison, WI, USA) was used to detect cell viability according to the manufacturer’s instructions. This assay is a homogeneous method of determining the number of viable cells in a culture based on quantitation of the ATP present, an indicator of metabolically active cells. Cells were digested and paved in white-bottomed 96-well plates with 1000 cells/100 μL cell suspension solution; then, different concentrations of compounds were added the next day. TOV-21G and HCT116 were placed in the incubator for three days and OVCAR3 for five days. Then, 100 μL Celltiter-Glo solution was added and mixed for 5 min; the luminous intensity of each well was detected with a spectrophotometer (BioTek, Winooski, VT, USA). The experiment was repeated three times to calculate the cell survival rate.

[4] = Pharmacokinetics study in rats; assay type: in vivo
Protocol: The pharmacokinetics study was created as described. […] Approximately 200 μL of whole blood was collected into heparin-coated tubes at 0.083, 0.25, 0.5, 1, 2, 3, 4, 6, 8, 12, and 24 h after dosing. Plasma was collected immediately by centrifugation (8000× g, 5 min, room temperature). Blood was placed in a heparinized Eppendorf™ tube. Plasma was centrifuged, and the concentration of compounds in the sample was determined by LCMS/MS after pre-treatment. Drug-concentration data were processed in a […] using WinNonlin™ 6.3 (Pharsight, Mountain View, CA, USA).

[5] = both sexes, rat, plasma, iv, 2 mg/kg i.v.
[6] = both sexes, rat, plasma, iv, 2 mg/kg, 2 mg/kg i.v.
[7] = both sexes, rat, plasma, po, 5 mg/kg i.g.
[8] = both sexes, rat, plasma, po, 5 mg/kg, 5 mg/kg i.g.

T1 sequence (P06493 whole entry): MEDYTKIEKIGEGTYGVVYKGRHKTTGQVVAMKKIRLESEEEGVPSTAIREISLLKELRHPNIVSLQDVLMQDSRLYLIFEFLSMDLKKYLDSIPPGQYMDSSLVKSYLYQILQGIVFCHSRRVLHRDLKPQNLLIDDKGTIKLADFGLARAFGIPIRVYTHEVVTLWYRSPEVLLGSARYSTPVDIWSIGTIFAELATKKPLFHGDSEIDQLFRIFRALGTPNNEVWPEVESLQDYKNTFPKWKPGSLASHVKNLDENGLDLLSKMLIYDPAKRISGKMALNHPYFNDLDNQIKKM
T1 sequence (P14635 whole entry partner): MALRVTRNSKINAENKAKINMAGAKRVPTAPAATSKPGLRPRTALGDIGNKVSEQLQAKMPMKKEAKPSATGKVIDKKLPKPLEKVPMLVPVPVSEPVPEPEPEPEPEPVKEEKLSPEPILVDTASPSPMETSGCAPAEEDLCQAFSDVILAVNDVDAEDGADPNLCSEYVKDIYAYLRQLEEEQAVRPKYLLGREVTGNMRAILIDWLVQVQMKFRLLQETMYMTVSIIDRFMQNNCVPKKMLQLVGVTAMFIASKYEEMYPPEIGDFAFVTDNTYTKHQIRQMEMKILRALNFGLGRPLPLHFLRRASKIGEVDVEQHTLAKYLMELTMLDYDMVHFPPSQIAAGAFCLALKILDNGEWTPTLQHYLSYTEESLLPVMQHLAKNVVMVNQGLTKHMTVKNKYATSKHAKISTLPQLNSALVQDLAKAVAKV

CC1(C)CCN1C(=O)O[C@@H]1CC[C@H](c2cc(NC(=O)Cc3ccc(N4CCCC4=O)cc3)n[nH]2)C1 [III-13]
IC50 [1]: 0.528 µM | IC90 [1]: 5.64 µM | IC50 [2]: 6.24 µM | IC90 [2]: 23.1 µM | IC50 [3]: 0.0609 µM | IC90 [3]: 0.235 µM | CL/F ([4]; 2 mg/kg i.v.): 41.2 mL/min/kg | Vz/F ([4]; 2 mg/kg i.v.): 1.3 ± 0.374 L/kg | AUClast ([4]; 2 mg/kg i.v., 2 mg/kg): 2.052 ± 0.337 µM·h | T1/2 ([4]; 2 mg/kg i.v., 2 mg/kg): 22.2 ± 7.8 min | AUClast ([4]; 5 mg/kg i.g., 5 mg/kg): 0.293 ± 0.0646 µM·h | T1/2 ([4]; 5 mg/kg i.g., 5 mg/kg): 50.4 ± 7.2 min | Cmax [4, 5]: 5500 ± 2310 nM | MRT last [4, 5]: 27 ± 15 min | AUC(0-t) [4, 6]: ~2.05 µM·h | half-life [4, 6]: ~22.2 min | bioavailability ([4]; both sexes, rat, plasma, oral, 5 mg/kg, 5 mg/kg i.g. vs 2 mg/kg i.v., read-out: F (oral bioavailability)): ~3.57% | Cmax [4, 7]: 389 ± 87.9 nM | MRT last [4, 7]: 51 ± 6 min | AUC(0-t) [4, 8]: ~0.293 µM·h | Tmax [4, 8]: ~15 min | half-life [4, 8]: ~50.4 min
